According to ChEMBL document CHEMBL1146570, “Eudesmane derivatives and other sesquiterpenes from Laggera alata” (J Nat Prod, 2003):
pIC50: −log10 of the molar value.

How the values were obtained:
KB = test: Cytotoxicity against human KB cells after 72 hrs; format: functional, cell-based
SK-MEL = test: Cytotoxicity against human SK-MEL cells at 20 ug/mL after 72 hrs; format: functional
A549 = test: Cytotoxicity against human A549 cells at 20 ug/mL after 72 hrs; format: functional; conditions: A549, 72 h

Row | Compound | pIC50 (KB) | inhibition at 20 µg/mL (SK-MEL) [%] | inhibition at 20 µg/mL (A549) [%]
1 | C=C(C(=O)O)[C@@H]1CC[C@@]2(C)CC[C@@H](O)[C@@](C)(O)[C@@H]2C1 | < 4.00 |  | 
2 | C=C(C(=O)O)[C@@H]1CC[C@@]2(C)CCC[C@@](C)(O)[C@@H]2C1 [ILICIC ACID] |  | 23.6 | 10.3
